This is an account of results in ChEMBL document CHEMBL4888484, “Replenishing the malaria drug discovery pipeline: Screening and hit evaluation of the MMV Hit Generation Library 1 (HGL1) against asexual blood stage Plasmodium falciparum ,using a nano luciferase reporter read-out” (2022).

Data set [1] concerns Plasmodium falciparum. Kind of data set: Hit confirmation in dose-response curve in NF54 pLDH assay, at 72h. It is filed as functional, organism-based. Also on record: timepoint 72 hour. The settings on record: NF54, Erythrocyte.
For data set [2], the system named is Plasmodium falciparum. Kind of data set: Hit confirmation in dose-response curve in NF54 nanoGlo assay, at 12h. In kind it is functional, organism-based, Erythrocyte. Also on record: timepoint 12 hour. Conditions: Plasmodium falciparum, NF54, Erythrocyte, 12 h.
The nature of data set [3]: Hit confirmation in dose-response curve in HepG2 cytotoxicity assay, at 72h. It is filed as toxicity, cell-based. On the set-up: timepoint 72 hour. Conditions: human, HepG2 cells.
The test system of data set [4] is Plasmodium falciparum. Kind of data set: Hit confirmation in dose-response curve in Dd2 pLDH assay, at 72h. Conditions: Dd2, Erythrocyte. On the set-up: timepoint 72 hour. It is filed as functional, organism-based.
Data set [5] has as its system Plasmodium falciparum. Nature of the data set: Hit confirmation in dose-response curve in NF54 nanoGlo assay, at 72h. In kind it is functional, organism-based, Erythrocyte. Also on record: timepoint 72 hour. The settings on record: Plasmodium falciparum, NF54, Erythrocyte, 72 h.

pIC50: −log10 of the molar value.

As to `CCc1ccc(/C=C/c2c[nH]c3ccccc23)[n+](CC)c1`, the pIC50 is 6.29 in data set [1], below 5.00 in data set [2], 6.43 in data set [4] and 6.58 in data set [5]. Further, in data set [3], the IC50 at 72 h is above 10 µM.

`COc1cc(C(=O)Nc2[nH]c(=O)ncc2F)ccc1Cl`: the pIC50 in data set [1] was 8.00; in data set [2], 5.11; in data set [4], below 5.00; in data set [5] it was 8.23. This compound came in with an IC50 at 72 h in data set [3] above 10 µM.

Consider `COc1ccc(CCNc2oc(-c3cccnc3)nc2C#N)cc1OC`, for which the negative-log IC50 (pIC50) in data set [1] is below 5.00; in data set [2], 5.62; in data set [4], below 5.00; in data set [5], 5.40. The IC50 at 72 h in data set [3] was above 10 µM.

For the compound `NC(=O)C(NC(=O)c1cccc(Cl)c1)C(N)=O`, the pIC50 in data set [1], in data set [2], in data set [4] and in data set [5] was below 5.00 each time. Further, in data set [3], the IC50 at 72 h is above 10 µM.

For the compound `Cc1ccc([C@H](c2c[nH]c3ccccc23)N(C)C(=O)C(C)C)cc1`, the pIC50 was below 5.00 in data set [1], 5.82 in data set [2], below 5.00 in data set [4] and 5.56 in data set [5]. The IC50 at 72 h in data set [3] was above 10 µM.

As to `Cc1nn(-c2ccccc2)c2nc(Cc3ccccc3)nc(N3CCCN(C(=O)NC4CCCCC4)CC3)c12`, the pIC50 in data set [1] is below 5.00; in data set [2] it was 5.56; in data set [4], below 5.00; in data set [5], 5.30. The compound also returned an IC50 at 72 h in data set [3] above 10 µM.

On to `CCCCCn1c(NCc2cc(Cl)ccc2O)nc2ccccc21`, for which the pIC50 in data set [1] is 5.06; in data set [2], 5.17; in data set [4], 5.13; in data set [5], 5.44. Moreover, the IC50 at 72 h in data set [3] is above 10 µM.

Regarding `Cn1n[n+](CCCCC(Cl)(Cl)Cl)c2ccccc21`, the pIC50 in data set [1] was 5.48; in data set [2], below 5.00; in data set [4], 5.54; in data set [5], 5.55. The IC50 at 72 h in data set [3] was above 10 µM.

As for `CCNC(=O)c1csc(COc2ccc3c(c2)[C@H](c2ccc(C)cc2)N(C(=O)CC(C)C)CC3)n1`, the pIC50 in data set [1] was 5.11; in data set [2] it was 5.01; in data set [4], 5.35; in data set [5], 5.45. The compound also returned an IC50 at 72 h in data set [3] above 10 µM.

Take `c1coc(CNc2nc(Nc3cccc4ccccc34)nc3ccccc23)c1`: the pIC50 in data set [1] is 5.10; in data set [2] it was 5.24; in data set [4], 5.30; in data set [5] it was 5.55. Moreover, the IC50 at 72 h in data set [3] was above 10 µM.

As for `COc1ccc(-c2cc3nc(C)cc(N4CCN(C/C=C/c5ccccc5)CC4)n3n2)cc1OC`, the pIC50 is 5.13 in data set [1], 5.31 in data set [2], 5.25 in data set [4] and 5.65 in data set [5]. Also, the IC50 at 72 h in data set [3] was above 10 µM.

Take `CC[n+]1ccc(-c2ncc(-c3ccc(C(C)(C)C)cc3)o2)cc1`: the pIC50 is 6.74 in data set [1], below 5.00 in data set [2], 6.38 in data set [4] and 6.23 in data set [5]. The compound further displayed an IC50 at 72 h in data set [3] above 10 µM.

`CNc1nc(Nc2ccc3c(c2)OCCO3)nc2ccccc12`: the pIC50 in data set [1] was 5.93; in data set [2], 5.72; in data set [4], 5.93; in data set [5], 6.07. The compound further registered an IC50 at 72 h in data set [3] above 10 µM.

Turning to `Cc1nnc(CNC(=O)Nc2cccc3c4c(oc23)CCCC4)o1`, the pIC50 in data set [1] is 5.66; in data set [2], 5.54; in data set [4], 5.58; in data set [5], 5.67. The same compound returned an IC50 at 72 h in data set [3] above 10 µM.

As for `Cc1cc(N2C[C@H]3CC[C@@H](C2)[C@H]3N(C)C)nc(Nc2cccc(O)c2)n1`, the pIC50 in data set [1] was 5.69; in data set [2], 5.30; in data set [4], 5.75; in data set [5], 5.82. This compound yielded an IC50 at 72 h in data set [3] above 10 µM.

`CC(N=C1NC(=NC(C)c2ccccc2)c2ccccc21)c1ccccc1` (stereo not given): the pIC50 in data set [1] is 5.30; in data set [2] it was 5.31; in data set [4], 5.38; in data set [5], 5.61. The compound further had an IC50 at 72 h in data set [3] above 10 µM.

With `Cc1nc(C(=O)Nc2[nH]c(=O)ncc2F)c(-c2ccccc2)o1`, the pIC50 in data set [1] was 7.90; in data set [2], 5.02; in data set [4] it was below 5.00; in data set [5] it was 8.08. The compound also returned an IC50 at 72 h in data set [3] above 10 µM.

For the compound `COc1ccc(-c2c(C)nn3c(N4CCC(C(=O)NC5CC5)CC4)cc(C)nc23)cc1OC`, the pIC50 in data set [1] was below 5.00; in data set [2], 5.71; in data set [4], below 5.00; in data set [5] it was 5.57. Also, in data set [3], the IC50 at 72 h was above 10 µM.

Turning to `NC(=O)c1ccccc1NC(=O)C1CCN(c2cc(C3CC3)ncn2)CC1`, the pIC50 was 5.08 in data set [1], 5.62 in data set [2], 5.20 in data set [4] and 5.69 in data set [5]. The IC50 at 72 h in data set [3] was above 10 µM.

Consider `COc1ccc2[nH]c3c(c2c1)CCN(C(=O)c1ccc(C)c(C)c1)[C@@H]3c1ccccc1OC`, for which the pIC50 is 5.45 in data set [1], 5.06 in data set [2], 5.59 in data set [4] and 5.76 in data set [5]. Also, the concentration for half-maximal inhibition (IC50) at 72 h in data set [3] is above 10 µM.

`COC(=O)c1ccccc1NC(=O)NCCn1nnc2cc(S(=O)(=O)N(C)C)ccc21`: the pIC50 is below 5.00 in data set [1], below 5.00 in data set [2], below 5.00 in data set [4] and 5.59 in data set [5]. In data set [3], the IC50 at 72 h was above 10 µM.

As to `O=C1NCCCOc2cccc(c2)[C@H]2c3ccc(cc3CCN2C(=O)CCN2CCOCC2)Oc2ccc(O)c1c2`, the negative-log IC50 (pIC50) in data set [1] is 5.09; in data set [2], below 5.00; in data set [4], 5.39; in data set [5], 5.65. In data set [3], the IC50 at 72 h was above 10 µM.

Consider `c1ccc(-c2noc(-c3ccc(NC4CCCCC4)nn3)n2)cc1`, for which the pIC50 is 5.10 in data set [1], below 5.00 in data set [2], 5.14 in data set [4] and 5.51 in data set [5]. The IC50 at 72 h in data set [3] is above 10 µM.

On to `Cc1ccc(C(=O)Nc2cc3c4c(c2)C2CCCC2CN4CC2CCCC32)cc1` (stereo not given), for which the pIC50 in data set [1] was 5.41; in data set [2], 5.04; in data set [4], 5.38; in data set [5], 5.62. The compound also displayed an IC50 at 72 h in data set [3] above 10 µM.

On to `Cc1ccccc1C(=O)Cc1ncc[nH]1`, for which the pIC50 in data set [1] is 5.24; in data set [2], 5.31; in data set [4], 5.41; in data set [5], 5.64. Moreover, the IC50 at 72 h in data set [3] was above 10 µM.

Consider `COc1cccc(-c2nc(C)c(C(=O)Nc3nc(C(C)C)n[nH]3)s2)c1`, for which the pIC50 in data set [1] was below 5.00; in data set [2] it was 6.24; in data set [4] it was below 5.00; in data set [5], 5.83. The compound also came in with an IC50 at 72 h in data set [3] above 10 µM.

For `NC(=O)c1ccc(C(F)(F)F)n(C[C@H](O)c2cc(Cl)ccc2Cl)c1=O`, the pIC50 was 5.21 in data set [1], 5.14 in data set [2], 5.42 in data set [4] and 5.58 in data set [5]. Besides, the IC50 at 72 h in data set [3] was above 10 µM.

Consider `CCCN1CCC(NCc2ccc(-c3cccc(Cl)c3Cl)o2)CC1`, for which the pIC50 in data set [1] is 5.45; in data set [2] it was 5.15; in data set [4], 5.58; in data set [5], 5.58. In addition, the IC50 at 72 h in data set [3] was above 10 µM.

Consider `Cc1cc(N2CC(OCc3ccccc3)C2)nc(Nc2cccc(O)c2)n1`, for which the pIC50 in data set [1] was 5.58; in data set [2] it was 5.54; in data set [4] it was 5.84; in data set [5], 5.86. Further, the IC50 at 72 h in data set [3] was above 10 µM.

Turning to `Cc1cc(OC[C@@H](O)CNC(C)(C)CC(C)(C)C)cc(C)c1Cl`, the pIC50 was 5.08 in data set [1], 5.36 in data set [2], 5.39 in data set [4] and 5.62 in data set [5]. In data set [3], this compound gave an IC50 at 72 h of 10.5 µM.

As to `c1ccc(CC2=NCCc3ccccc32)cc1`, the pIC50 in data set [1] is 5.52; in data set [2] it was below 5.00; in data set [4], 5.85; in data set [5], 5.89. Besides, the IC50 at 72 h in data set [3] was above 10 µM.

On to `O=C(CCn1c(=O)[nH]c2ccsc2c1=O)NCc1ccccc1`, for which the pIC50 in data set [1] was below 5.00; in data set [2], below 5.00; in data set [4] it was below 5.00; in data set [5], 5.04. The compound also returned an IC50 at 72 h in data set [3] above 10 µM.

Consider `CCc1nc2cc(N3CCC(C(=O)Nc4ccc5c(c4)OCO5)CC3)cnc2nc1CC`, for which the pIC50 is below 5.00 in data set [1], 6.38 in data set [2], below 5.00 in data set [4] and 5.89 in data set [5]. The IC50 at 72 h in data set [3] is above 10 µM.

As to `COc1ccc(-[n+]2c(-c3ccc(-c4ccccc4)cc3)cn3c2COCC3)cc1`, the pIC50 in data set [1] was 5.62; in data set [2], below 5.00; in data set [4], 5.68; in data set [5] it was 5.67. Moreover, the IC50 at 72 h in data set [3] was above 10 µM.

With `COc1nc(NC2CCS(=O)(=O)CC2)ncc1F`, the pIC50 in data set [1] was 7.08; in data set [2] it was below 5.00; in data set [4] it was below 5.00; in data set [5] it was 7.32. Moreover, the IC50 at 72 h in data set [3] is above 10 µM.

As to `COc1ccccc1CN(C(=O)c1ccc(C)cc1)c1ccc(CC(=O)NCCN2CCCCC2)cc1`, the pIC50 in data set [1] is 6.29; in data set [2] it was below 5.00; in data set [4], below 5.00; in data set [5] it was 5.50. The IC50 at 72 h in data set [3] was above 10 µM.

Regarding `Cc1nn(-c2ccccn2)c(O)c1C(c1ccccc1)c1c(C)nn(-c2ccccn2)c1O`, the pIC50 in data set [1] was 5.26; in data set [2] it was 6.00; in data set [4], 5.45; in data set [5], 5.99. The IC50 at 72 h in data set [3] is above 10 µM.

Take `O=C(NCCN1CCCC1)c1ccc2nc(-c3ccc(Cl)cc3)cn2c1`: the pIC50 was 5.57 in data set [1], 5.39 in data set [2], 5.58 in data set [4] and 5.58 in data set [5]. In data set [3], this compound gave an IC50 at 72 h above 10 µM.
